Assays:
[1] = tested on: BRD4-BD2; conditions: cited from earlier work
[2] = tested on: acute leukemia tumors; conditions: mice, administered orally, 60 mg/kg per day; cited from earlier work
[3] = target: T1, bromodomain protein BRD4 BD1 (Homo sapiens, UniProt O60885); assay: HTRF in vitro assay, inhibitory activity against BRD4 BD1; format: binding; conditions: BRD4(1) 30 nM in final system
T1 construct: The proteins BRD4 BD1/BD2 used in the experiment were purchased from Active Motif Company (Cat. No. 31380/31446); purchased Active Motif 31380
Procedure: In this example, the half inhibitory activity (IC50) of the compounds of the present invention against the bromodomain protein BRD4 BD1 was determined.
(§1) The inhibitory activity of the compound against BRD4 BD1 was determined by using Homogeneous Time-Resolved Fluorescence (HTRF).
(§2) The proteins BRD4 BD1/BD2 used in the experiment were purchased from Active Motif Company (Cat. No. 31380/31446); Streptavidin XL-665 (#610SAXLA) and EPIgeneous Binding Domain Kit A (#62BDAPEG) were purchased from Cisbio Bioassays Company, [Lys(5,8,12,16)Ac]H4(1-21)-biotin (#64989), and [Lys(5,8,12,16)Ac]H4(1-25) were products of AnaSpec company; OTX015 and ABBV-075 were purchased from SelleckChem. 384 Well ProxiPlate (#6008280) was purchased from PerkinElmer. The multifunctional microplate reader used for the experimental was a product of PerkinElmer, model: Envision 2104. The experimental water was Millipore-Q pure water.
(§3) 10 mM of stock solution of compound in DMSO was diluted to 1 mM with DMSO and stored, and then diluted 10 times with Binding Domain dilution buffer (purchased from Cisbio Bioassays) for use (the concentration of DMSO in the final system was […]), 1:5 gradient dilution, a total of 5 concentrations.
(§4) 4. Test Method: 1 Batch, 2 Duplicate Wells
(§5) • 1) 5 μL of test compound was transferred to 45 μL of Binding Domain dilution buffer. • 2) 2 μL of 10× compound (4 μL Binding Domain dilution buffer: positive control; 6 μL enzyme buffer (purchased from Cisbio Bioassays): negative control) was transferred to the reaction plate. • 3) 4 μL of 5×BRD4(1) or BRD4(2) (30 nM in final system) was added to the reaction plate. • 4) 4 μL of 5×[Lys(5,8,12,16)Ac]H4(1-21)-biotin was added to the reaction plate, and the plate was covered with a film, and incubated at 37° C. for 30 min. • 5) A detection mixture of SA-XL665 (2×) and anti-H3K9me0-Eu(K) (2×) was prepared in detection buffer (purchased from Cisbio Bioassays). • 6) 10 μL of detection mixture (2×) was added to each well, and incubated for 3 h at room temperature, and the mp value was read using a multi-plate reader Envision. The parameters were set as follows.

[4] = target: T2, bromodomain protein BRD4 BD2 (Homo sapiens, UniProt O60885); assay: HTRF in vitro assay, inhibitory activity against BRD4 BD2; format: binding; conditions: BRD4(2) 30 nM in final system
T2 construct: The proteins BRD4 BD1/BD2 used in the experiment were purchased from Active Motif Company (Cat. No. 31380/31446); purchased Active Motif 31446
Procedure: as §1, §2, §3, §4, §5

SMILES | IC50 [3] [µM] | IC50 [4] [µM] | selectivity (BD2/BD1) [1] [times] | inhibits acute leukemia tumors [2] [%]
CCNC(=O)c1cc2c(-c3cc(C(C)(C)O)ccc3Oc3c(C)cc(F)cc3C)cn(C)c(=O)c2[nH]1 [Abbv744] | – | – | > 100 | –
Cc1noc2c1-c1ccccc1C(c1ccc(Cl)cc1)=N[C@H]2CC(N)=O [CPI-0610] | – | – | – | 41
Cn1cc(C(CO)c2ccccc2)c2cc(-c3cnn(C4COC4)c3)[nH]c2c1=O (stereo not drawn) [Compound A67, 4-(2-hydroxy-1-phenethyl)-6-methyl-2-(1-(oxetan-3-yl)-1H-pyrazol-4-yl)-1,6-dihydro-7H-pyrrolo[2,3-c]pyridin-7-one] | 0.1 to 1 | 0.01 to 0.1 | – | –
Cn1cc(Oc2ccccc2)c2cc(-c3cnn(C4COC4)c3)[nH]c2c1=O [Compound A68, 6-methyl-2-(1-(oxetan-3-yl)-1H-pyrazol-4-yl)-4-phenoxy-1,6-dihydro-7H-pyrrolo[2,3-c]pyridin-7-one] | 0.1 to 1 | 0.01 to 0.1 | – | –
Cc1ccc(C(C)(C)c2cn(C)c(=O)c3[nH]c(-c4cnn(C5COC5)c4)cc23)cc1 [Compound A69, 6-methyl-2-(1-(oxetan-3-yl)-1H-pyrazol-4-yl)-4-(2-(p-tolyl)propan-2-yl)-1,6-dihydro-7H-pyrrolo[2,3-c]pyridin-7-one] | 0.1 to 1 | 0.01 to 0.1 | – | –
Cn1cc(C(c2ccccc2)c2ccccc2)c2cc(-c3cnn(C4COC4)c3)[nH]c2c1=O [Compound A71] | 0.1 to 1 | 0.01 to 0.1 | – | –

More lines, main results first:

IC50 [3] [µM] | IC50 [4] [µM] | SMILES | selectivity (BD2/BD1) [1] [times] | inhibits acute leukemia tumors [2] [%]
0.1 to 1 | 0.01 to 0.1 | CC(c1ccc(O)cc1)c1cn(C)c(=O)c2[nH]c(-c3cnn(C4COC4)c3)cc12 (stereo not drawn) [Compound A72, 4-(1-(4-hydroxyphenyl)ethyl)-6-methyl-2-(1-(oxetan-3-yl)-1H-pyrazol-4-yl)-1,6-dihydro-7H-pyrrolo[2,3-c]pyridin-7-one] | – | –
0.1 to 1 | ≤ 0.01 | COc1ccc(C(C)c2cn(C)c(=O)c3[nH]c(-c4cnn(C5COC5)c4)cc23)cc1 (stereo not drawn) [Compound A73, 4-(1-(4-methoxyphenyl)ethyl)-6-methyl-2-(1-(oxetan-3-yl)-1H-pyrazol-4-yl)-1,6-dihydro-7H-pyrrolo[2,3-c]pyridin-7-one] | – | –
0.1 to 1 | ≤ 0.01 | CC(c1cccc(F)c1F)c1cn(C)c(=O)c2[nH]c(-c3cnn(C4COC4)c3)cc12 (stereo not drawn) [Compound A74, 4-(1-(2,3-difluorophenyl)ethyl)-6-methyl-2-(1-(oxetan-3-yl)-1H-pyrazol-4-yl)-1,6-dihydro-7H-pyrrolo[2,3-c]pyridin-7-one] | – | –
0.1 to 1 | ≤ 0.01 | CC(c1cccc(Cl)c1F)c1cn(C)c(=O)c2[nH]c(-c3cnn(C4COC4)c3)cc12 (stereo not drawn) [Compound A75, 4-(1-(3-chloro-2-fluorophenyl)ethyl)-6-methyl-2-(1-(oxetan-3-yl)-1H-pyrazol-4-yl)-1,6-dihydro-7H-pyrrolo[2,3-c]pyridin-7-one] | – | –

From patent US12649735B2 (HAIHE BIOPHARMA CO., LTD., priority 2019, dated 2026)
